Source: the supplement of paper PMC4932681

Columns and labels:
MCF-7 [1] = assay: relative IC50 (midpoint of fitted logistic curve, plateau may be below 50% inhibition; CellTiter-Glo viability); higher = less potent; details: 72 h
In short: (§1)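 Breast cancer cell lines and their resistant derivatives were seeded into 384-well plates holding FO2Baq library drugs at five concentrations spanning a 10 000-fold range. Resistant lines were in medium with 1 μM of the selecting drug. Cells were incubated 72 h at 37 °C, and CellTiter-Glo viability was read on a PHERAstar and normalised to vehicle-only and positive controls. Drug sensitivity score, relative IC50 (curve midpoint) and top-dose inhibition came from logistic dose–response fits (Breeze pipeline).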

MCF-7 Tam1 [2] = assay: as above; details: 4-OH-tamoxifen in medium 1 µM; 72 h
In short: as §1

ZR-75-1 [3] = assay: as above; details: 72 h
In short: as §1

BT-474 Tam1 [4] = assay: as above; details: 4-OH-tamoxifen in medium 1 µM; 72 h
In short: as §1

BT-474 [5] = assay: as above; details: 72 h
In short: as §1

T-47D [6] = assay: as above; details: 72 h
In short: as §1

ZR-75-1 Tam1 [7] = assay: as above; details: 4-OH-tamoxifen in medium 1 µM; 72 h
In short: as §1

T-47D Tam2 [8] = assay: as above; details: 4-OH-tamoxifen in medium 1 µM; 72 h
In short: as §1

ZR-75-1 Tam2 [9] = assay: as above; details: 4-OH-tamoxifen in medium 1 µM; 72 h
In short: as §1

MCF-7 [10] = assay: drug sensitivity score (DSS) (DSS (dimensionless)); higher = more sensitive; extreme values may be limits of the assay; details: 72 h
In short: as §1

MCF-7 Tam1 [11] = assay: as above; details: 4-OH-tamoxifen in medium 1 µM; 72 h
In short: as §1

ZR-75-1 [12] = assay: as above; details: 72 h
In short: as §1

BT-474 Tam1 [13] = assay: as above; details: 4-OH-tamoxifen in medium 1 µM; 72 h
In short: as §1

BT-474 [14] = assay: as above; details: 72 h
In short: as §1

T-47D [15] = assay: as above; details: 72 h
In short: as §1

ZR-75-1 Tam1 [16] = assay: as above; details: 4-OH-tamoxifen in medium 1 µM; 72 h
In short: as §1

BT-474 Tam2 [17] = assay: as above; details: 4-OH-tamoxifen in medium 1 µM; 72 h
In short: as §1

T-47D Tam1 = assay: as above; details: 4-OH-tamoxifen in medium 1 µM; 72 h
In short: as §1

T-47D Tam2 [18] = assay: as above; details: 4-OH-tamoxifen in medium 1 µM; 72 h
In short: as §1

ZR-75-1 Tam2 [19] = assay: as above; details: 4-OH-tamoxifen in medium 1 µM; 72 h
In short: as §1

BT-474 Tam2 [20] = assay: relative IC50 (midpoint of fitted logistic curve, plateau may be below 50% inhibition; CellTiter-Glo viability); higher = less potent; details: 4-OH-tamoxifen in medium 1 µM; 72 h
In short: as §1

Structure (SMILES)	relative IC50 (MCF-7 [1]; 4-OH-tamoxifen in medium 1 µM) [µM]	relative IC50 (MCF-7 Tam1 [2]) [µM]	relative IC50 (ZR-75-1 [3]; 4-OH-tamoxifen in medium 1 µM) [µM]	relative IC50 (BT-474 Tam1 [4]) [µM]	relative IC50 (BT-474 [5]; 4-OH-tamoxifen in medium 0 µM) [µM]	relative IC50 (BT-474 [5]; 4-OH-tamoxifen in medium 1 µM) [µM]	relative IC50 (T-47D [6]; 4-OH-tamoxifen in medium 0 µM) [µM]	relative IC50 (ZR-75-1 Tam1 [7]) [µM]	relative IC50 (T-47D Tam2 [8]) [µM]	relative IC50 (ZR-75-1 Tam2 [9]) [µM]	drug sensitivity score (MCF-7 [10]; 4-OH-tamoxifen in medium 0 µM)	drug sensitivity score (MCF-7 [10]; 4-OH-tamoxifen in medium 1 µM)	drug sensitivity score (MCF-7 Tam1 [11])	drug sensitivity score (ZR-75-1 [12]; 4-OH-tamoxifen in medium 0 µM)	drug sensitivity score (ZR-75-1 [12]; 4-OH-tamoxifen in medium 1 µM)	drug sensitivity score (BT-474 Tam1 [13])	drug sensitivity score (BT-474 [14]; 4-OH-tamoxifen in medium 0 µM)	drug sensitivity score (BT-474 [14]; 4-OH-tamoxifen in medium 1 µM)	drug sensitivity score (T-47D [15]; 4-OH-tamoxifen in medium 0 µM)	drug sensitivity score (T-47D [15]; 4-OH-tamoxifen in medium 1 µM)	drug sensitivity score (ZR-75-1 Tam1 [16])	drug sensitivity score (BT-474 Tam2 [17])	drug sensitivity score (T-47D Tam1)	drug sensitivity score (T-47D Tam2 [18])	drug sensitivity score (ZR-75-1 Tam2 [19])	relative IC50 (MCF-7 [1]; 4-OH-tamoxifen in medium 0 µM) [µM]	relative IC50 (ZR-75-1 [3]; 4-OH-tamoxifen in medium 0 µM) [µM]	relative IC50 (T-47D [6]; 4-OH-tamoxifen in medium 1 µM) [µM]	relative IC50 (BT-474 Tam2 [20]) [µM]
CC(=O)O[C@H]1C(=O)[C@@]2(C)[C@H]([C@H](OC(=O)c3ccccc3)[C@]3(O)C[C@H](OC(=O)[C@H](O)[C@@H](NC(=O)c4ccccc4)c4ccccc4)C(C)=C1C3(C)C)[C@]1(OC(C)=O)CO[C@@H]1C[C@@H]2O [Paclitaxel]	0.0169	> 1	> 1	0.0323	0.00849	0.0059	0.00591	> 1	0.0109	> 1	7.01	7.14	0	6.96	0	4.68	11.5	15.5	13	1.38	0	3.11	7.9	7.33	0				
Nc1nc(F)nc2c1ncn2[C@@H]1O[C@H](CO)[C@@H](O)[C@@H]1O [Fludarabine]		> 10	> 10	> 10	> 10	> 10	> 10	> 10	> 10	> 10	0	1.23	0	0	0	0	0	0	0	0	0	0	2.13	0	0	> 10	> 10	> 10	> 10
C/C(=C\c1csc(C)n1)[C@@H]1C[C@@H]2O[C@]2(C)CCC[C@H](C)[C@H](O)[C@@H](C)C(=O)C(C)(C)[C@@H](O)CC(=O)O1 [Patupilone  (Epothilone B)]		> 1	> 1	0.0118	0.0201	0.00598	0.00951	> 1	0.0147	> 1	7.85	4.38	0	4.4	0	8.19	9.82	14.9	8.94	1.35	0	5.53	4.63	6.29	0			0.242	0.0297
N#Cc1ccc(C(c2ccc(C#N)cc2)n2cncn2)cc1 [Letrozole]	> 10	> 10	> 10	> 10	> 10	> 10	> 10	> 10	> 10	> 10	0	0	0	0	0	0	0	0	0	11.1	0	0	2.88	0	0	> 10	> 10		> 10
CN1CCN(c2nc(C3=C(c4c[nH]c5ccccc45)C(=O)NC3=O)c3ccccc3n2)CC1 [Sotrastaurin]		> 10	> 10	1.54	> 10	0.0515	> 10	> 10	> 10	> 10	0.517	0	0	0	0	6.13	0	10.6	0	0	0	1.44	0	0	0		> 10	> 10	
CC[C@H](Nc1ncnc2[nH]cnc12)c1nc2cccc(F)c2c(=O)n1-c1ccccc1 [CAL-101]		> 10	1.21	> 10	> 10			1.14	1.71	1.33	2.04	0.584	0	4.36	4.39	0	0	0.147	0.0938	0.0607	4.88	0	0.811	2.66	5.82		1.21		> 10
COc1cc(Nc2ncc(F)c(Nc3ccc4c(n3)NC(=O)C(C)(C)O4)n2)cc(OC)c1OC [Tamatinib (R406)]	> 10	> 10	> 10	> 10	> 10	> 10	> 10	> 10	> 10	> 10	0	0	0	0	0	0	0	0	0	0	0	0	0.592	0	0	> 10	> 10	> 10	> 10
CNC(=O)c1ccc(N2C(=S)N(c3ccc(C#N)c(C(F)(F)F)c3)C(=O)C2(C)C)cc1F [Enzalutamide (MDV 3100)]		> 10	> 10		> 10	> 10	> 10	> 10	> 10	> 10	0	0.74	0	0	0	0	0	0	0	0	0	0.634	0	0	0	> 10	> 10	> 10	
